Results from patent US8921576B2, “Spiroindoline compound, and medicinal agent comprising same” (Kowa Company, Ltd., priority 2011, dated 2014).

biological target: T1, GST-GK derived from human liver GK (Homo sapiens, UniProt P35557); test: In vitro GK activity measurement test (G6PDH-coupled, OD340); assay type: biochemical; conditions: test compound 1 μmol/L; glucose 2.5 mmol/L; 25° C.; OD340 slope with compound / without compound; read-out: GK activation rate (%)
T1 construct: made in house; host or cells: Escherichia coli DH5α
T1 sequence (P35557 1-466 isoform P35557-2): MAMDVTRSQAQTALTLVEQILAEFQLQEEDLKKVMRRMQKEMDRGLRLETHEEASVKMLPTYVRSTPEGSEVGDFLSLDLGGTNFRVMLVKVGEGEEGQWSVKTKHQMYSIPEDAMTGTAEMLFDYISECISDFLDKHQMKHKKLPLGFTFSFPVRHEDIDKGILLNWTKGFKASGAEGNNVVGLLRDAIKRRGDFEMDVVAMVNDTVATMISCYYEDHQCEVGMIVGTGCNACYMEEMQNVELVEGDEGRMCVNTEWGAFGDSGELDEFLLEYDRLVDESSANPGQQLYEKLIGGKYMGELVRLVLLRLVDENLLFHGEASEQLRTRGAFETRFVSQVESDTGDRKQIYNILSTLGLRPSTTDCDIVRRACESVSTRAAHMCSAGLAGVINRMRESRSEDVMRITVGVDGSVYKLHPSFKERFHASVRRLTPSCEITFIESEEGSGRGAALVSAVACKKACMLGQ
Excerpt: cDNA (GenBank Accession No. NM_033507, human glucokinase, variant 2) encoding human liver-type GK polypeptide was cloned by performing a polymerase chain reaction (hereinafter referred to as “PCR”) using a human liver cDNA library (Human liver QUICK-Clone cDNA, TAKARA BIO INC.), and the thus cloned cDNA was then introduced into an expression vector (pGEX-3X, GE Healthcare Japan) for glutathione S transferase (hereinafter referred to as GST) fusion protein expression. The resulting vector was introduced into Escherichia coli (Competent high DH5α, Toyobo Co., Ltd.), and the transformed Escherichia coli was then cultured at 37° C. Thereafter, Isopropyl β-D-1-thiogalactopyranoside (final concentration: 1 mmol/L, Sigma Aldrich Japan) was added to the culture, and the obtained mixture was then cultured at 30° C. for 3 hours. Thereafter, a cell mass was recovered. The recovered cell mass was subjected to freezing-and-thawing, and the resulting cell mass was then suspended in phosphate buffer with final concentration of 1% Triton X-100, followed by disintegration with an ultrasonic disruptor. The homogenate was centrifuged at 33,200 rpm at 4° C. for 1 hour. Thereafter, the supernatant was recovered, and a GST-GK fusion protein was then purified using a glutathione column (GSTrap FF, GE Healthcare Japan). The obtained GST-GK fusion protein was divided into some portions each having a small volume, and the thus divided proteins were then preserved at −80° C.
A GK assay method was carried out at 25° C. at a final incubation volume of 100 μL in a flat-bottom 96-well assay plate. An assay buffer comprised 25 mmol/L Hepes buffer (pH 7.1), 25 mmol/L KCl, 2.5 mmol/L or 10 mmol/L D-glucose, 5 mmol/L ATP, 1 mmol/L nicotinamide adenine dinucleotide phosphate (abbreviated as NADP), 2 mmol/L MgCl2, 1 mmol/L dithiothreitol (DTT), 2 units/mL glucose-6 phosphate dehydrogenase (G6PDH), and 1 μg/mL GST-GK derived from human liver GK. ATP, G6PDH, and NADP were purchased from Roche Diagnostics. […] The thus mixed solution was preincubated in an incubator in which the temperature was controlled at 25° C. for 15 minutes. Subsequently, the reaction was initiated by adding 10 μL of the GST-GK solution to the reaction mixture, resulting in a final concentration of 0.1 μg/mL. After initiation of the reaction, an increase in the optical concentration at 340 nm (OD340) was monitored with a microplate spectrophotometer (Varsamax, Molecular Devices Japan K.K.) every 10 seconds over an incubation period of 10 minutes. An inclination of the OD340 increase was defined as raw data. The GK activating rate was indicated as a numerical value obtained from the expression: (Inclination of OD340 increase by addition of the test compound)/(inclination of OD340 increase without addition of the test compound). The results of the GK activating rate obtained at a test compound concentration of 1 μmol/L under the condition of a glucose concentration of 2.5 mmol/L are shown in the following table.

SMILES	activity at 1 µM [%]
COC(=O)NCCCSc1cnc(NC(=O)N2CC3(CCN(C(=O)OC)C3)c3cc(Cl)ccc32)s1 (centres unmarked) [Example 455, methyl 5-chloro-1-((5-((3-((methoxycarbonyl)amino)propyl)thio)thiazol-2-yl)carbamoyl)spiro[indoline-3,3′-pyrrolidine]-1′-carboxylate]	606
COC(=O)N1CCC2(C1)CN(C(=O)Nc1ncc(SC(C)CO)s1)c1ccc(Cl)cc12 (centres unmarked) [Example 141, methyl 5-chloro-1-((5-((1-hydroxypropan-2-yl)thio)thiazol-2-yl)carbamoyl)spiro[indoline-3,3′-pyrrolidine]-1′-carboxylate]	574
COC(=O)N1CCC2(C1)CN(C(=O)Nc1ncc(SCC(=O)N(C)C)s1)c1ccc(Cl)cc12 (centres unmarked) [Example 131, methyl 5-chloro-1-((5-((2-(dimethylamino)-2-oxoethyl)thio)thiazol-2-yl)carbamoyl)spiro[indoline-3,3′-pyrrolidine]-1′-carboxylate]	411
CNC(=O)N1CC[C@@]2(C1)CN(C(=O)Nc1ncc(OC)s1)c1ccc(Cl)cc12 [Example 380, (R)-5-Chloro-N1-(5-methoxythiazol-2-yl)-N1′-methylspiro[indoline-3,3′-pyrrolidine]-1,1′-dicarboxamide]	636
COC(=O)N1CC[C@@]2(C1)CN(C(=O)Nc1ncc(SCC(=O)O)s1)c1ccc(Br)cc12 [Example 336, (S)-2-((2-(5-bromo-1′-(methoxycarbonyl)spiro[indoline-3,3′-pyrrolidin]-1-ylcarboxamido)thiazol-5-yl)thio)acetic acid]	451
CC(=O)N1CC(CNC(=O)N2CCC3(C2)CN(C(=O)Nc2ncc(Cl)s2)c2ccc(Cl)cc23)C1 (centres unmarked) [Example 476, N1′-((1-acetylazetidin-3-yl)methyl)-5-chloro-N1-(5-chlorothiazol-2-yl)spiro[indoline-3,3′-pyrrolidine]-1,1′-dicarboxamide]	445
COc1cnc(NC(=O)N2CC3(CCN(C(=O)CO)C3)c3cc(C(F)(F)F)ccc32)s1 (centres unmarked) [Example 441, 1′-(2-Hydroxyacetyl)-N-(5-methoxythiazol-2-yl)-5-(trifluoromethyl)spiro[indoline-3,3′-pyrrolidine]-1-carboxamide]	416
COC(=O)N1CCC2(C1)CN(C(=O)Nc1ncc(SCCCC(=O)NO)s1)c1ccc(Cl)cc12 (centres unmarked) [Example 169, methyl 5-chloro-1-((5-((4-(hydroxyamino)-4-oxobutyl)thio)thiazol-2-yl)carbamoyl)spiro[indoline-3,3′-pyrrolidine]-1′-carboxylate]	532
COC(=O)N1CCC2(C1)CN(C(=O)Nc1ncc(SCCCNC(C)=O)s1)c1ccc(Cl)cc12 (centres unmarked) [Example 177, methyl 1-((5-((3-acetamidopropyl)thio)thiazol-2-yl)carbamoyl)-5-chlorospiro[indoline-3,3′-pyrrolidine]-1′-carboxylate]	530
CNC(=O)N1CCC2(C1)CN(C(=O)Nc1ncc(Cl)s1)c1ccc(CCCC(=O)N3CCC3)cc12 (centres unmarked) [Example 424, 5-(4-(Azetidin-1-yl)-4-oxobutyl)-N1-(5-chlorothiazol-2-yl)-N1′-methylspiro[indoline-3,3′-pyrrolidine]-1,1′-dicarboxamide]	438
CC(=O)N1CCC2(C1)CN(C(=O)Nc1ncc(Cl)s1)c1ccc(C(F)(F)F)cc12 (centres unmarked) [Example 431, 1′-acetyl-N-(5-chlorothiazol-2-yl)-5-(trifluoromethyl)spiro[indoline-3,3′-pyrrolidine]-1-carboxamide]	432
NCC(=O)N1CCC2(C1)CN(C(=O)Nc1ncc(Cl)s1)c1ccc(Br)cc12 (centres unmarked) [Example 20, 1′-(2-aminoacetyl)-5-bromo-N-(5-chlorothiazol-2-yl)spiro[indoline-3,3′-pyrrolidine]-1-carboxamide]	429
CNC(=S)N1CCC2(C1)CN(C(=O)Nc1ncc(Cl)s1)c1ccc(Cl)cc12 (centres unmarked) [Example 449, 5-Chloro-N-(5-chlorothiazol-2-yl)-1′-(methylcarbamothioyl)spiro[indoline-3,3′-pyrrolidine]-1-carboxamide]	633
COC(=O)N1CCC2(C1)CN(C(=O)Nc1ncc(Oc3cccc(C(N)=O)c3)s1)c1ccc(Cl)cc12 (centres unmarked) [Example 186, methyl 1-((5-(3-carbamoylphenoxy)thiazol-2-yl)carbamoyl)-5-chlorospiro[indoline-3,3′-pyrrolidine]-1′-carboxylate]	583
CNC(=O)CCSc1cnc(NC(=O)N2CC3(CCN(C(=O)OC)C3)c3cc(Cl)ccc32)s1 (centres unmarked) [Example 151, methyl 5-chloro-1-((5-((3-(methylamino)-3-oxopropyl)thio)thiazol-2-yl)carbamoyl)spiro[indoline-3,3′-pyrrolidine]-1′-carboxylate]	656
COC(=O)N1CCC2(C1)CN(C(=O)Nc1ncc(Cl)s1)c1ccc(Br)cc12 (centres unmarked) [Example 13, Methyl 5-bromo-1-((5-chlorothiazol-2-yl)carbamoyl)spiro[indoline-3,3′-pyrrolidine]-1′-carboxylate]	678
CNC(=O)C(=O)N1CCC2(C1)CN(C(=O)Nc1ncc(Cl)s1)c1ccc(Cl)cc12 (centres unmarked) [Example 46, 5-chloro-N-(5-chlorothiazol-2-yl)-1′-(2-(methylamino)-2-oxoacetyl)spiro[indoline-3,3′-pyrrolidine]-1-carboxamide]	499
COCCN(CC1CC1)S(=O)(=O)c1ccc2c(c1)C1(CCN(C(C)=O)C1)CN2C(=O)Nc1nc2ccc(OC)nc2s1 (centres unmarked) [Example 300, 1′-Acetyl-5-(N-(cyclopropylmethyl)-N-(2-methoxyethyl)sulfamoyl)-N-(5-methoxythiazolo[5,4-b]pyridin-2-yl)spiro[indoline-3,3′-pyrrolidine]-1-carboxamide]	689
COC(=O)N1CC[C@@]2(C1)CN(C(=O)Nc1nc3ccc(OC)nc3s1)c1ccc(S(=O)(=O)N(CCCC(=O)O)Cc3ccccc3)cc12 [Example 342, (S)-4-(N-benzyl-1′-(methoxycarbonyl)-1-((5-methoxythiazolo[5,4-b]pyridin-2-yl)carbamoyl)spiro[indoline-3,3′-pyrrolidin]-5-ylsulfonamido)butyric acid]	420
CS(=O)(=O)CCNC(=O)N1CCC2(C1)CN(C(=O)Nc1ncc(Cl)s1)c1ccc(Cl)cc12 (centres unmarked) [Example 467, 5-chloro-N1-(5-chlorothiazol-2-yl)-N1′-(2-(methylsulfonyl)ethyl)spiro[indoline-3,3′-pyrrolidine]-1,1′-dicarboxamide]	480
CNC(=O)CCCNC(=O)N1CCC2(C1)CN(C(=O)Nc1ncc(Cl)s1)c1ccc(Cl)cc12 (centres unmarked) [Example 472, 5-Chloro-N1-(5-chlorothiazol-2-yl)-N1′-(4-(methylamino)-4-oxobutyl)spiro[indoline-3,3′-pyrrolidine]-1,1′-dicarboxamide]	456
O=C(NCCO)N1CCC2(C1)CN(C(=O)Nc1ncc(Cl)s1)c1ccc(Cl)cc12 (centres unmarked) [Example 459, 5-chloro-N1-(5-chlorothiazol-2-yl)-N1′-(2-hydroxyethyl)spiro[indoline-3,3′-pyrrolidine]-1,1′-dicarboxamide]	537
CC(=O)OCC(=O)N1CC[C@@]2(C1)CN(C(=O)Nc1ncc(Cl)s1)c1ccc(Cl)cc12 [Example 52, (R)-2-(5-chloro-1-((5-chlorothiazol-2-yl)carbamoyl)spiro[indoline-3,3′-pyrrolidin]-1′-yl)-2-oxoethyl acetate]	531
